Read-outs that look alike come from different tables or passages of the source.
Key:
[1] = pKa of the lipid by TNS fluorescence; format: physicochemical
Experimental: Unless explicitly indicated otherwise, all pKas referred to herein are measured in water at standard temperature and pressure. Also, unless otherwise indicated, all references to pKa are references to pKa measured using the following technique.
2 mM solution of lipid in ethanol are prepared by weighing the lipid and then dissolving in ethanol.
This is done with all eight buffers.
Priority: Column priority • Carriage Speed: Normal • Auto read: Off
The normalized fluorescence intensity vs. pH chart is then plotted in the Microsoft Excel software. The eight points are connected with a smooth line.
The pKa determined using this method is precise to about 0.2 pKa units.

[2] = tested on: Factor VII; assay: Factor VII activity assay, in vivo liver delivery of FVII siRNA LNP; set-up: species or system mouse; conditions: ~48 h
Experimental: Female CD-1 mice are received from Charles River Labs and maintained on standard lab chow and water ad libitum. The animals weigh approximately 25 grams at time of dosing. Formulated siRNA is administered as a single dose at various dose levels intravenously via the lateral tail vein calculated on a (mg siRNAs/kg) basis according to individual animal weights (10 ml/kg injection volume).
Formulated siRNAs are made up of double stranded siRNA sequences specific to a target mRNA sequence, and are in the form of lipid nucleotid particles (LNPs) containing cationic lipids, stealth lipids and neutral lipids, as provided in the Examples below. The siRNA construct for use in targeting the liver is specific to Factor VII. […] FVII siRNA duplex sequence
Formulated Factor VII siRNA is administered as a single dose at various dose levels intravenously via the lateral tail vein calculated on a mg siRNAs/kg basis according to individual animal weights (10 ml/kg injection volume). Approximately 48 h after injection, the mice are euthanized by CO2 inhalation followed by exsanguinations through the vena cava. […] In some cases, small pieces (˜50 mg) of liver are collected and snap frozen in liquid nitrogen for follow up mRNA quantitation.
An assay standard curve is prepared using pooled plasma aliquots from the vehicle control animals.

[3] = Particle size and PDI by dynamic light scattering (Malvern Zetasizer); format: physicochemical
Experimental: Unless indicated otherwise, all sizes referred to herein are the average sizes (diameters) of the fully formed nanoparticle, as measured by dynamic light scattering on a Malvern Zetasizer. The nanoparticle sample is diluted in phosphate buffered saline (PBS) so that the count rate is approximately 200-400 kcts. The data is presented as a weighted average of the intensity measure.
The acronym PDI stands for polydispersity index. Unless indicated otherwise, all PDIs referred to herein are the PDI of the fully formed nanoparticle, as measured by dynamic light scattering on a Malvern Zetasizer. The nanoparticle sample is diluted in phosphate buffered saline (PBS) so that the count rate is approximately 200-400 kcts.

[4] = dose 3 mg/kg siRNA i.v., lipid/DSPC/CHOL/AVANTI 880150P 50/28/18/4, N/P 3.43
[5] = dose 3 mg/kg siRNA i.v., lipid/no neutral lipid/CHOL/AVANTI 880150P 50/0/46/4, N/P 3.43
[6] = lipid/DSPC/CHOL/AVANTI 880150P 50/28/18/4, N/P 3.43
[7] = lipid/no neutral lipid/CHOL/AVANTI 880150P 50/0/46/4, N/P 3.43
[8] = lipid/DSPC/CHOL/AVANTI 880150P 30/30/36/4, N/P 2.3
[9] = lipid/DSPC/CHOL/AVANTI 880150P 25/28/18/4, N/P 1.9

| SMILES | pKa ([1]; pKa) | FVII inhib % [2, 4] [%] | FVII inhib % [2, 5] [%] | Final size (nm) [3, 6] [nm] | PDI [3, 6] | Final size (nm) [3, 7] [nm] | PDI [3, 7] | further results |
| --- | --- | --- | --- | --- | --- | --- | --- | --- |
| CCCCC/C=C\C/C=C\CCCCCCCCOCC(CN1CCc2ccccc2C1)OCCOCCO[C@H]1CC[C@@]2(C)C(=CC[C@H]3[C@@H]4CC[C@H]([C@H](C)CCCC(C)C)[C@@]4(C)CC[C@@H]32)C1 (some centres unmarked) [E0001] | 4.84 | 27.6 | 20.1 | 71 | 0.101 | 77 | 0.16 | – |
| CCCCC/C=C\C/C=C\CCCCCCCCOCC(CN1CCN(C(=O)OC(C)(C)C)CC1)OCCOCCO[C@H]1CC[C@@]2(C)C(=CC[C@H]3[C@@H]4CC[C@H]([C@H](C)CCCC(C)C)[C@@]4(C)CC[C@@H]32)C1 (some centres unmarked) [E0002] | – | 10.4 | – | 109 | 0.221 | – | – | FVII inhib % ([2]; dose 1 mg/kg siRNA i.v., lipid/DSPC/CHOL/AVANTI 880150P 50/28/18/4, N/P 3.43): −0.3% |
| CCCCC/C=C\C/C=C\CCCCCCCCOCC(CN1CCC(N2CCCCC2)CC1)OCCOCCO[C@H]1CC[C@@]2(C)C(=CCC3C2CC[C@@]2(C)C3CC[C@@H]2[C@H](C)CCCC(C)C)C1 (some centres unmarked) [E0004] | 7.48 | 23.4 | 41 | 142 | 0.113 | 186 | 0.201 | – |
| CCCCC/C=C\C/C=C\CCCCCCCCOCC(CN1CCC(OC)CC1)OCCOCCO[C@H]1CC[C@@]2(C)C(=CCC3C2CC[C@@]2(C)C3CC[C@@H]2[C@H](C)CCCC(C)C)C1 (some centres unmarked) [E0005] | – | 12.2 | – | 168 | 0.069 | 146 | 0.07 | – |
| CCCCC/C=C\C/C=C\CCCCCCCCOCC(CN1C[C@@H](C)O[C@@H](C)C1)OCCOCCO[C@H]1CC[C@@]2(C)C(=CC[C@H]3[C@@H]4CC[C@H]([C@H](C)CCCC(C)C)[C@@]4(C)CC[C@@H]32)C1 (some centres unmarked) [E0006] | 4.88 | 15.7 | 21.2 | 146 | 0.04 | 95 | 0.142 | – |
| CCCCC/C=C\C/C=C\CCCCCCCCOCC(CN1CCC2(CC1)OCCCO2)OCCOCCO[C@H]1CC[C@@]2(C)C(=CCC3C2CC[C@@]2(C)C3CC[C@@H]2[C@H](C)CCCC(C)C)C1 (some centres unmarked) [E0007] | 5.84 | 72.2 | 76.8 | 92 | 0.178 | 138 | 0.148 | – |
| CCCCC/C=C\C/C=C\CCCCCCCCOCC(CN1CC[C@H]2OC(C)(C)O[C@H]2C1)OCCOCCO[C@H]1CC[C@@]2(C)C(=CCC3C2CC[C@@]2(C)C3CC[C@@H]2[C@H](C)CCCC(C)C)C1 (some centres unmarked) [E0009] | 4.89 | 38.4 | 6.9 | 83 | 0.2 | 82 | 0.16 | – |
| CCCCC/C=C\C/C=C\CCCCCCCCOCC(CN1CCCC2CCCCC21)OCCOCCO[C@H]1CC[C@@]2(C)C(=CCC3C2CC[C@@]2(C)C3CC[C@@H]2[C@H](C)CCCC(C)C)C1 (some centres unmarked) [E0010] | 5.85 | 46.8 | 65.1 | 90 | 0.184 | 80 | 0.201 | – |
| CCCCC/C=C\C/C=C\CCCCCCCCOCC(CN1CCNCC1)OCCOCCO[C@H]1CC[C@@]2(C)C(=CC[C@H]3[C@@H]4CC[C@H]([C@H](C)CCCC(C)C)[C@@]4(C)CC[C@@H]32)C1 (some centres unmarked) [E0012] | – | – | – | – | – | – | – | FVII inhib % ([2]; dose 3 mg/kg siRNA i.v., lipid/DSPC/CHOL/AVANTI 880150P 30/30/36/4, N/P 2.3): 9.3%; Final size (nm) [3, 8]: 220 nm; PDI [3, 8]: 0.105 |
| CCCCC/C=C\C/C=C\CCCCCCCCOCC(CN1CC2CCCC2C1)OCCOCCO[C@H]1CC[C@@]2(C)C(=CC[C@H]3[C@@H]4CC[C@H]([C@H](C)CCCC(C)C)[C@@]4(C)CC[C@@H]32)C1 (some centres unmarked) [E0022] | – | 49.4 | 87.8 | 93 | 0.143 | 84 | 0.192 | – |
| CCCCC/C=C\C/C=C\CCCCCCCCOCC(CN1CCC(CCOC)CC1)OCCOCCO[C@H]1CC[C@@]2(C)C(=CCC3C2CC[C@@]2(C)C3CC[C@@H]2[C@H](C)CCCC(C)C)C1 (some centres unmarked) [E0033] | – | – | 15.3 | – | – | 105 | 0.05 | FVII inhib % ([2]; dose 3 mg/kg siRNA i.v., lipid/DSPC/CHOL/AVANTI 880150P 25/28/18/4, N/P 1.9): −36.4%; Final size (nm) [3, 9]: 161 nm; PDI [3, 9]: 0.16 |
| CCCCC/C=C\C/C=C\CCCCCCCCOC[C@@H](CN1CCCCC1)OCCOCCO[C@H]1CC[C@@]2(C)C(=CCC3C2CC[C@@]2(C)C3CC[C@@H]2[C@H](C)CCCC(C)C)C1 (some centres unmarked) [E0034] | – | 81.3 | 88.1 | 99 | 0.16 | 99 | 0.16 | – |
| CCCCC/C=C\C/C=C\CCCCCCCCOCC(CN1CCC[C@@H]1COC)OCCOCCO[C@H]1CC[C@@]2(C)C(=CC[C@H]3C4CC[C@H]([C@H](C)CCCC(C)C)[C@@]4(C)CC[C@@H]32)C1 (some centres unmarked) [E0037] | – | 69.3 | 66.2 | 96 | 0.24 | 117 | 0.1 | – |
| CCCCC/C=C\C/C=C\CCCCCCCCOCC(CN1CCC(N2CCOCC2)C1)OCCOCCO[C@H]1CC[C@@]2(C)C(=CC[C@H]3[C@@H]4CC[C@H]([C@H](C)CCCC(C)C)[C@@]4(C)CC[C@@H]32)C1 (some centres unmarked) [E0038] | – | −2.4 | −6.2 | 116 | 0.25 | 115 | 0.08 | – |
| CCCCC/C=C\C/C=C\CCCCCCCCOCC(CN1CCCCC1)OCCOCCOC(=O)O[C@H]1CC[C@@]2(C)C(C=CC3C2CC[C@@]2(C)C3CC[C@@H]2[C@H](C)CCCC(C)C)C1 (some centres unmarked) [E0056] | 6.33 | – | – | – | – | – | – | pKa [1]: 5.84 |
| CCCCC/C=C\C/C=C\CCCCCCCCOCC(CN1CCCCC1)OCCNC(=O)O[C@H]1CC[C@@]2(C)C(=CC[C@H]3[C@@H]4CC[C@H]([C@H](C)CCCC(C)C)[C@@]4(C)CC[C@@H]32)C1 (some centres unmarked) [E0102] | 6.31 | – | – | – | – | – | – | Final size (nm) ([3]; LNP formulation with PLK1 siRNA, helper, neutral and stealth lipid, molar ratio and N/P as in the table): 94.69 nm |
| CCCCCCCC/C=C\CCCCCCCCOCC(CN1CCOCC1)OCCOCCOC(=O)CO[C@H]1CC[C@@]2(C)C(=CC[C@H]3[C@@H]4CC[C@H]([C@H](C)CCCC(C)C)[C@@]4(C)CC[C@@H]32)C1 (some centres unmarked) [E0125] | 5.53 | – | – | – | – | – | – | Final size (nm) ([3]; LNP formulation with PLK1 siRNA, helper, neutral and stealth lipid, molar ratio and N/P as in the table, stealth lipid S004, molar ratio 50/38/10/2, N/P 4): 101.5 nm; Final size (nm) ([3]; LNP formulation with PLK1 siRNA, helper, neutral and stealth lipid, molar ratio and N/P as in the table, stealth lipid S004, molar ratio 50/43/5/2, N/P 4): 92.84 nm; Final size (nm) ([3]; LNP formulation with PLK1 siRNA, helper, neutral and stealth lipid, molar ratio and N/P as in the table, stealth lipid S004, molar ratio 50/48/2, N/P 4): 94.13 nm |
| CCCCC/C=C\C/C=C\CCCCCCCCOCC(CN1CCC(F)(F)CC1)OCCOCCO[C@H]1CC[C@@]2(C)C(=CCC3C2CC[C@@]2(C)C3CC[C@@H]2[C@H](C)CCCC(C)C)C1 (some centres unmarked) [E0170] | – | 9.3 | 14.3 | 133 | 0.095 | 170 | 0.05 | – |
